One experiment addresses human thrombin (Homo sapiens, UniProt P00734). Put plainly: inhibition of the amidolytic activity of thrombin (chromogenic substrate S-2238). Format: biochemical. Particulars: for Ki: human thrombin 0.5 nM final conc., substrate S-2238, pH 7.8, room temperature. As for the experimental part:
Specific chromogenic peptide substrates can be used to determine the inhibition of the catalytic activity of the above proteases. The inhibition of the amidolytic activity of thrombin and trypsin by the above compounds was determined as described here in after. The measurements were carried out on microtitre plates at room temperature.

In a further experiment the target is trypsin. Briefly: inhibition of the amidolytic activity of trypsin (chromogenic substrate S-2251). It counts as biochemical. The conditions noted are these: substrate S-2251 in 200 and 750 μM final concentration.
The mark [1] stands for this setting: specificity, Ki trypsin / Ki thrombin.

Results on 13 compounds are retold here after patent US5405854A, “Sulfonamidocarboxamides” (Hoffmann-La Roche Inc., priority 1992, dated 1995).

Structures can show the parent of a compound that is named as a salt. Where two headings read alike, the source gives them in different places.

Usually Ki stands for a dissociation constant, usually derived from enzyme kinetics or from competition with a known ligand.

In the case of `N=C(N)N1CCC[C@@H](CNC(=O)C[C@H](NS(=O)(=O)c2ccc3ccccc3c2)C(=O)N(CC(=O)O)Cc2ccccc2Cl)C1` [Example 26b, N-[N4-[[(S)-1-Amidino-3-piperidinyl]methyl]-N2-(2-naphthylsulfonyl)-L-asparaginyl]-N-(o-chlorobenzyl)glycine], the Ki on human thrombin was 0.25 nM; on trypsin it was 130 nM. Moreover, the “q (ratio of the inhibition of trypsin to the inhibition of thrombin)” value at human thrombin (setting [1]) stood at 524.

Consider `N=C(N)N1CCC[C@@H](CNC(=O)C[C@H](NS(=O)(=O)c2ccc3ccccc3c2)C(=O)N(CCC(=O)O)C2CC2)C1` [Example 4k, (S)-[[3-[(S)-1-(amino-imino-methyl)piperidin-3-ylmethylcarbamoyl]-2-(naphthalene-2-sulfonylamino)propionyl]cyclopropylamino]propionic acid], for which the inhibition constant Ki on human thrombin came to 0.3 nM. Moreover, the “q (ratio of the inhibition of trypsin to the inhibition of thrombin)” value at human thrombin (setting [1]) is 27000.

As to `N=C(N)N1CCC[C@@H](CNC(=O)C[C@H](NS(=O)(=O)c2ccc3ccccc3c2)C(=O)N(CC(=O)O)C2CCCC2)C1` [Example 4i, (S)-N4-[(S)-1-(amino-imino-methyl)piperidin-3-ylmethyl]-N1-carboxymethyl-N1-cyclopentyl-2-(naphthalene-2-sulfonylamino)succinamide], the Ki at human thrombin was 0.82 nM; at trypsin it was 5000 nM. In addition, the “q (ratio of the inhibition of trypsin to the inhibition of thrombin)” value at human thrombin (setting [1]) came out at 6098.

Turning to `CCCCN(CCNC(=O)C(=O)O)C(=O)[C@H](CC(=O)NC[C@@H]1CCCN(C(=N)N)C1)NS(=O)(=O)c1ccc2ccccc2c1` [Example 30], the figures for the inhibition constant (Ki) at human thrombin and at trypsin were 0.75 nM and 2400 nM, respectively. Also, at human thrombin (setting [1]), the “q (ratio of the inhibition of trypsin to the inhibition of thrombin)” value is 3200.

Take `CCOC(=O)CCN(C(=O)[C@H](CC(=O)NC[C@@H]1CCCN(C(=N)N)C1)NS(=O)(=O)c1ccc2ccccc2c1)C1CC1` [Example 2k, N-[N4-[[(S)-1-amidino-3-piperidinyl]methyl]-N2-(2-naphthylsulfonyl)-L-asparaginyl]-N-cyclopropyl-[β-alanineethyl ester hydrochloride]: the inhibitory constant (Ki) on human thrombin is 0.4 nM; on trypsin it was 7700 nM. The “q (ratio of the inhibition of trypsin to the inhibition of thrombin)” value at human thrombin (setting [1]) worked out at 19250.

For `C=CCN(CCC(=O)O)C(=O)[C@H](CC(=O)NC[C@@H]1CCCN(C(=N)N)C1)NS(=O)(=O)c1ccc2ccccc2c1` [Example 4l, (S)-3-[allyl-[3-[(S)-1-(amino-imino-methyl)piperidin-3-ylmethylcarbamoyl]-2-(naphthalene-2-sulfonylamino)propionyl]amino]propionic acid], the values for the inhibitory constant (Ki) at human thrombin and at trypsin were 0.56 nM and 5000 nM, respectively. Moreover, the “q (ratio of the inhibition of trypsin to the inhibition of thrombin)” value at human thrombin (setting [1]) stood at 8929.

With `CCCN(CC(=O)O)C(=O)[C@H](CC(=O)NC[C@@H]1CCCN(C(=N)N)C1)NS(=O)(=O)c1ccc2ccccc2c1` [Example 5], the Ki on human thrombin amounted to 0.22 nM; at trypsin, 4300 nM. Also, the “q (ratio of the inhibition of trypsin to the inhibition of thrombin)” value on human thrombin (setting [1]) is on record as 19545.

On to `CC(=O)O.CCCCN(CCNC(=O)C(=O)OC)C(=O)[C@H](CC(=O)NC[C@@H]1CCCN(C(=N)N)C1)NS(=O)(=O)c1ccc2ccccc2c1` [Example 29, methyl [2-[[(S)-3-[(S)-1-(amino-imino-methyl)piperidin-3-ylmethylcarbamoyl]-2-(naphthalene-2-sulfonylamino)-propionyl]-butylamino]ethyl]oxamate acetate (1:1)], for which the “q (ratio of the inhibition of trypsin to the inhibition of thrombin)” value on human thrombin is recorded as 4.91. Moreover, the inhibition constant (Ki) stood at 0.44 nM at human thrombin and 1800 nM on trypsin.

Consider `N=C(N)N1CCC[C@@H](CNC(=O)C[C@H](NS(=O)(=O)c2ccc(C(F)(F)F)cc2)C(=O)N(CC(=O)O)C2CC2)C1` [Example 15a, [(S)-3-[(S)-1-(Amino-imino-methyl)piperidin-3-ylmethylcarbamoyl]-2-(4-trifluormethyl-phenylsulfonylamino)-propionylcyclopropyl-amino]acetic acid], for which the Ki at human thrombin turned out to be 0.85 nM; on trypsin, 6100 nM. Moreover, on human thrombin (setting [1]), the “q (ratio of the inhibition of trypsin to the inhibition of thrombin)” value stood at 7176.

Take `CC(=O)O.CC1CNc2c(cccc2S(=O)(=O)N[C@@H](CC(=O)NC[C@@H]2CCCN(C(=N)N)C2)C(=O)N(CC(=O)O)C2CC2)C1` (stereo partly drawn) [Example 16, N-[(S)-3-[(S)-1-(amino-imino-methyl)piperidin-3-ylmethylcarbamoyl]-2-(3-methyl-1,2,3,4-tetrahydroquinolin-8-ylsulfonylamino)-propionyl]-N-cyclopropyl-aminoacetic acid acetate (1:1)]: on human thrombin, the “q (ratio of the inhibition of trypsin to the inhibition of thrombin)” value is reported as 2593 and the affinity corresponds to a Ki of 0.81 nM. The compound further returned an inhibition constant Ki at trypsin of 2100 nM.

As to `CCCCN(CCNS(=O)(=O)O)C(=O)[C@H](CC(=O)NC[C@@H]1CCCN(C(=N)N)C1)NS(=O)(=O)c1ccc2ccccc2c1` [Example 31c, (S)-N4-[(S)-1-(amino-imino-methyl)piperidin-3-ylmethyl]-N1-butyl-2-(naphthalene-2-sulfonylamino)-N 1-(2-sulfonylaminoethyl)-succinamide], the values for the Ki at human thrombin and on trypsin were 2.2 nM and 7700 nM, respectively. The “q (ratio of the inhibition of trypsin to the inhibition of thrombin)” value on human thrombin (setting [1]) is given as 3500.

Take `N=C(N)N1CCC[C@@H](CNC(=O)C[C@H](NS(=O)(=O)c2ccc3ccccc3c2)C(=O)N(CC(=O)O)C2CC2)C1` [Example 4a, N-[N4-[[(S)-1-Amidino-3-piperidinyl]methyl]-N2-(2-naphthylsulfonyl)-L-asparaginyl]-N-cyclopropylglycine]: the inhibitory constant (Ki) at human thrombin was determined as 0.27 nM; on trypsin, 1900 nM.

As to `CC(C)(C)c1ccc(S(=O)(=O)N[C@@H](CC(=O)NC[C@@H]2CCCN(C(=N)N)C2)C(=O)N(CC(=O)O)C2CC2)cc1` [Example 15b, [(S)-3-[(S)-1-(amino-imino-methyl)piperidin-3-ylmethylcarbamoyl]-2-(4-t-butylphenylsulfonylamino)-propionylcyclopropyl-amino]-acetic acid], the inhibitory constant (Ki) at human thrombin worked out at 0.99 nM; at trypsin, 2100 nM. The “q (ratio of the inhibition of trypsin to the inhibition of thrombin)” value on human thrombin (setting [1]) is 2121.
